Data published in patent US9790231B2 (LUPIN LIMITED, priority 2013, dated 2017).

These molecules were tested on IL-2 secretion by Jurkat T cells (assay: Inhibition of IL-2 secretion (PHA-stimulated Jurkat T cells, ELISA)). Conditions: Homo sapiens, 20 to 24 hours.
Format: cell-based
Protocol: The CRAC channel modulatory activity of the compounds were thus evaluated by measuring the secretion of IL-2 by antigen stimulated T-cells in vitro. Alternatively, such activity can also be evaluated by assay methods known to one skilled in the art.
Inhibition of IL-2 secretion: Jurkat T cells were seeded at a density of 0.5 to 1 million cells per well in RPMI medium. Test compounds from this invention were added to the cells at different concentrations. This was followed by the addition of PHA, a T cell mitogen after 10 minutes. The cells were then incubated for 20 to 24 hours in a CO2 incubator at 37° C. After incubation with the compounds, cells were centrifuged; the supernatant was collected and processed for ELISA to quantitate the amount of IL-2 secreted. A commercial ELISA kit (R&D Systems, Inc. Minneapolis, Minn., USA) was used to estimate the IL-2 concentrations. Amount of IL-2 secreted by cells stimulated with PHA was considered as a 100% maximal signal and the decrease in amount of IL-2 secreted by cells treated with the test compounds was expressed as percent inhibition of the maximal signal. The dose response data was analyzed using 4-parametric sigmoidal dose response (variable slope) curve-fit.

Row | SMILES | IC50 [nM]
1 | O=C(Nc1ccc(C2=CC3(CCC3)Oc3ccccc32)cc1)c1c(F)cccc1F [Example 68, 2,6-Difluoro-N-(4-(spiro[chromene-2,1′-cyclobutan]-4-yl)phenyl)benzamide] | < 25
2 | Cc1cc2c(cc1-c1ccc(NC(=O)c3c(F)cccc3F)cc1)OC1(CCC1)CC2 [Example 22, 2,6-Difluoro-N-(4-(6-methylspiro[chroman-2,1′-cyclobutan]-7-yl)phenyl)benzamide] | < 25
3 | Cc1ccc2c(c1)C(c1ccc(NC(=O)c3c(F)cccc3F)nc1)=CC1(CCC1)O2 [Example 106, 2,6-Difluoro-N-(5-(6-methylspiro[chromene-2,1′-cyclobutan]-4-yl)pyridin-2-yl)benzamide] | 100 to 500
4 | Cc1cc2c(cc1-c1ccc(NC(=O)c3c(F)cccc3F)nc1)OC(C)(CO)CC2=O (stereo not drawn) [Example 54, 2,6-Difluoro-N-(5-(2-(hydroxymethyl)-2,6-dimethyl-4-oxochroman-7-yl)pyridin-2-yl)benzamide] | 50 to 100
5 | Cc1cc2c(cc1-c1ccc(NC(=O)c3c(F)cccc3Cl)cc1)OC1(CCC1)CC2 [Example 8, 2-Chloro-6-fluoro-N-(4-(6-methylspiro[chroman-2,1′-cyclobutan]-7-yl)phenyl)benzamide] | < 25
6 | COCC1(C)C=C(c2cnc(NC(=O)c3c(F)cccc3F)cn2)c2cccc(C)c2O1 (stereo not drawn) [Example 103, 2,6-Difluoro-N-(5-(2-(methoxymethyl)-2,8-dimethyl-2H-chromen-4-yl)pyrazin-2-yl)benzamide] | < 25
7 | CC1(C)C=C(c2ccc(NC(=O)c3c(F)cccc3F)nc2)c2ccccc2O1 [Example 108, N-(5-(2,2-Dimethyl-2H-chromen-4-yl)pyridin-2-yl)-2,6-difluorobenzamide] | 25 to 50
8 | CCc1cc2c(cc1-c1ccc(C(=O)Nc3c(F)cncc3F)cc1)OC(C)(C)CC2=O [Example 42, N-(3,5-Difluoropyridin-4-yl)-4-(6-ethyl-2,2-dimethyl-4-oxochroman-7-yl)benzamide] | < 25
9 | Cc1c(-c2ccc(NC(=O)c3c(F)cccc3F)cc2)ccc2c1OC(C)(C)CC2 [Example 59, 2,6-Difluoro-N-(4-(2,2,8-trimethylchroman-7-yl)phenyl)benzamide] | < 25
10 | Cc1ccc2c(c1)OC1(C=C2c2ccc(NC(=O)c3c(F)cccc3F)cc2)CCC1 [Example 77, 2,6-Difluoro-N-(4-(7-methylspiro[chromene-2,1′-cyclobutan]-4-yl)phenyl)benzamide] | 50 to 100
11 | CCc1cc2c(cc1-c1ccc(NC(=O)c3c(F)cccc3F)cc1)OC1(COC1)CC2=O [Example 125, N-(4-(6-Ethyl-4-oxospiro[chroman-2,3′-oxetan]-7-yl)phenyl)-2,6-difluorobenzamide] | < 25
12 | Cc1cc2c(cc1-c1ccc(NC(=O)c3c(F)cccc3F)cc1)OC(C)(C)CC2N(C)C (stereo not drawn) [Example 62, N-(4-(4-(Dimethylamino)-2,2,6-trimethylchroman-7-yl)phenyl)-2,6-difluorobenzamide] | 50 to 100
13 | Cc1cc2c(cc1-c1ccc(NCc3c(F)cccc3F)cc1)OC1(CCC1)CC2=O [Example 21, 7-(4-((2,6-Difluorobenzyl)amino)phenyl)-6-methylspiro[chroman-2,1′-cyclobutan]-4-one] | 25 to 50
14 | Cc1c(-c2cnc(NC(=O)c3c(F)cccc3F)cn2)ccc2c1OC(C)(C)CC2 [Example 7, 2,6-Difluoro-N-(5-(2,2,8-trimethylchroman-7-yl)pyrazin-2-yl)benzamide] | 50 to 100
15 | O=C(Nc1ccc(C2=CC3(CCC3)Oc3ccccc32)cn1)c1c(F)cccc1F [Example 72, 2,6-Difluoro-N-(5-(spiro[chromene-2,1′-cyclobutan]-4-yl)pyridin-2-yl)benzamide] | 25 to 50
16 | CC1(CO)C=C(c2ccc(NC(=O)c3c(F)cccc3F)cc2)c2ccccc2O1 (stereo not drawn) [Example 93, 2,6-Difluoro-N-(4-(2-(hydroxymethyl)-2-methyl-2H-chromen-4-yl)phenyl)benzamide] | 50 to 100
17 | Cc1cc2c(cc1-c1ccc(NC(=O)c3c(F)cccc3F)cc1)OC(C)(CO)CC2=O (stereo not drawn) [Example 51, 2,6-Difluoro-N-(4-(2-(hydroxymethyl)-2,6-dimethyl-4-oxochroman-7-yl)phenyl)benzamide] | < 25

Row | SMILES | IC50 [nM]
18 | Cc1ccc2c(c1)OC1(C=C2c2ccc(NC(=O)c3c(F)cccc3F)nc2)CCC1 [Example 109, 2,6-Difluoro-N-(5-(7-methylspiro[chromene-2,1′-cyclobutan]-4-yl)pyridin-2-yl)benzamide] | 100 to 500
19 | Cc1cc2c(cc1-c1ccc(NC(=O)c3c(C)cccc3F)cc1)OC1(CCC1)CC2=O [Example 10, 2-Fluoro-6-methyl-N-(4-(6-methyl-4-oxospiro[chroman-2,1′-cyclobutan]-7-yl)phenyl)benzamide] | 25 to 50
20 | Cc1ccc2c(c1)OC(C)(C)C=C2c1ccc(NC(=O)c2c(F)cccc2F)cc1 [Example 87, 2,6-Difluoro-N-(4-(2,2,7-trimethyl-2H-chromen-4-yl)phenyl)benzamide] | 50 to 100
21 | Cc1cc2c(cc1-c1ccc(NC(=O)c3c(F)cccc3F)cc1)OC(C)(C)CC2=O [Example 1, 2,6-Difluoro-N-(4-(2,2,6-trimethyl-4-oxochroman-7-yl)phenyl)benzamide] | 25 to 50
22 | CCc1cc2c(cc1-c1cnc(NC(=O)c3c(F)cccc3F)cn1)OC1(CCC1)CC2=O [Example 41, N-(5-(6-Ethyl-4-oxospiro[chroman-2,1′-cyclobutan]-7-yl)pyrazin-2-yl)-2,6-difluorobenzamide] | 50 to 100
23 | Cc1cc2c(cc1-c1ccc(NC(=O)c3c(C)cccc3F)cc1)OC1(CCC1)CC2 [Example 9, 2-Fluoro-6-methyl-N-(4-(6-methylspiro[chroman-2,1′-cyclobutan]-7-yl)phenyl)benzamide] | 25 to 50
24 | CC1(C)CC(c2ccc(NC(=O)c3c(F)cccc3F)cc2)c2ccccc2O1 (stereo not drawn) [Example 80, N-(4-(2,2-Dimethylchroman-4-yl)phenyl)-2,6-difluorobenzamide] | 100 to 500
25 | Cc1cc2c(cc1-c1ccc(C(=O)Nc3c(F)cncc3F)cc1)OC(C)(C)CC2=O [Example 43, N-(3,5-Difluoropyridin-4-yl)-4-(2,2,6-trimethyl-4-oxochroman-7-yl)benzamide] | 100 to 500
26 | Cc1cc2c(cc1-c1ccc(C(=O)Nc3c(F)cccc3F)cc1)OC1(CCC1)CC2=O [Example 13, N-(2,6-Difluorophenyl)-4-(6-methyl-4-oxospiro[chroman-2,1′-cyclobutan]-7-yl)benzamide] | 25 to 50
27 | Cc1cc2c(cc1-c1ccc(NCc3c(F)cccc3F)cc1)OC(C)(C)CC2=O [Example 33, 7-(4-((2,6-Difluorobenzyl)amino)phenyl)-2,2,6-trimethylchroman-4-one] | < 25
28 | Cc1cccc2c1OC1(C=C2c2ccc(NC(=O)c3c(F)cccc3F)cn2)CCC1 [Example 102, 2,6-Difluoro-N(6-(8-methylspiro[chromene-2,1′-cyclobutan]-4-yl)pyridin-3-yl)benzamide] | 25 to 50
29 | Cc1cc2c(cc1-c1ccc(NC(=O)c3c(F)cccc3F)cc1)OC1(CC2=O)CN(C)C1 [Example 121, N-(4-(1,6′-Dimethyl-4′-oxospiro[azetidine-3,2′-chroman]-7′-yl)phenyl)-2,6-difluorobenzamide] | 25 to 50
30 | Cc1ccc2c(c1)C(c1cnc(NC(=O)c3c(F)cccc3F)cn1)=CC1(CCC1)O2 [Example 76, 2,6-Difluoro-N-(5-(6-methylspiro[chromene-2,1′-cyclobutan]-4-yl)pyrazin-2-yl)benzamide] | 50 to 100
31 | Cc1c(-c2ccc(NC(=O)c3c(F)cccc3F)cc2)ccc2c1OC1(CCC1)CC2 [Example 23, 2,6-Difluoro-N-(4-(8-methylspiro[chroman-2,1′-cyclobutan]-7-yl)phenyl)benzamide] | 50 to 100
32 | Cc1cc2c(cc1-c1cnc(NC(=O)c3c(F)cccc3F)cn1)OC(C)(CO)CC2 (stereo not drawn) [Example 114, 2,6-Difluoro-N-(5-(2-(hydroxymethyl)-2,6-dimethylchroman-7-yl)pyrazin-2-yl)benzamide] | 25 to 50
33 | Cc1ccc2c(c1)C(c1ccc(NC(=O)c3c(F)cccc3F)cc1)=CC(C)(CO)O2 (stereo not drawn) [Example 95, 2,6-Difluoro-N-(4-(2-(hydroxymethyl)-2,6-dimethyl-2H-chromen-4-yl)phenyl)benzamide] | 50 to 100
